Experimental data taken from patent US20260373132A1, “PERK INHIBITORHC-5404 IN COMBINATION WITH ANTI-PD-1 ANTIBODY AND/OR AN ANTIANGIOGENETIC AGENT FOR USE IN THE TREATMENT OF CANCER” (HIBERCELL, INC., priority 2022, published 2026).

How the values were obtained:
RIOK2 = RIOK2 (Homo sapiens, UniProt Q9BVS4); assay: KINOMEScan biochemical panel assay, RIOK2; type: binding; details: 1000 nM
Experimental: (§1) The selectivity of HC-5404 against the broader kinome was then evaluated using a KINOMEScan biochemical panel assay that measured binding against 468 unique kinases, including 403 wild-type human kinases and 59 mutant isoforms.

RXF-2667 = assay: RCC PDX single animal trial, RXF-2667; type: in vivo, mouse; details: HC-5404 30 mg/kg PO BID, n=1
Text: (§2) This example investigated the effect of HC-5404 in combination with VEGFR-TKIs in inhibiting tumor growth using 12 RCC PDX tumor models, following procedures analogous to those described above.
(§3) Single animal per group (n=1) trial of animals harboring diverse RCC PDX models were used in this study.

468 unique kinases = assay: KINOMEScan biochemical panel assay; type: binding, human
Experimental: as §1

PERK = biological target: T1, PERK (Homo sapiens, UniProt Q9NZJ5); assay: cell-free FRET-based biochemical assay, PERK; details: role: inhibitor; ratio of IC50 values
T1 construct: purchased Carna
T1 sequence (Q9NZJ5 30-1116): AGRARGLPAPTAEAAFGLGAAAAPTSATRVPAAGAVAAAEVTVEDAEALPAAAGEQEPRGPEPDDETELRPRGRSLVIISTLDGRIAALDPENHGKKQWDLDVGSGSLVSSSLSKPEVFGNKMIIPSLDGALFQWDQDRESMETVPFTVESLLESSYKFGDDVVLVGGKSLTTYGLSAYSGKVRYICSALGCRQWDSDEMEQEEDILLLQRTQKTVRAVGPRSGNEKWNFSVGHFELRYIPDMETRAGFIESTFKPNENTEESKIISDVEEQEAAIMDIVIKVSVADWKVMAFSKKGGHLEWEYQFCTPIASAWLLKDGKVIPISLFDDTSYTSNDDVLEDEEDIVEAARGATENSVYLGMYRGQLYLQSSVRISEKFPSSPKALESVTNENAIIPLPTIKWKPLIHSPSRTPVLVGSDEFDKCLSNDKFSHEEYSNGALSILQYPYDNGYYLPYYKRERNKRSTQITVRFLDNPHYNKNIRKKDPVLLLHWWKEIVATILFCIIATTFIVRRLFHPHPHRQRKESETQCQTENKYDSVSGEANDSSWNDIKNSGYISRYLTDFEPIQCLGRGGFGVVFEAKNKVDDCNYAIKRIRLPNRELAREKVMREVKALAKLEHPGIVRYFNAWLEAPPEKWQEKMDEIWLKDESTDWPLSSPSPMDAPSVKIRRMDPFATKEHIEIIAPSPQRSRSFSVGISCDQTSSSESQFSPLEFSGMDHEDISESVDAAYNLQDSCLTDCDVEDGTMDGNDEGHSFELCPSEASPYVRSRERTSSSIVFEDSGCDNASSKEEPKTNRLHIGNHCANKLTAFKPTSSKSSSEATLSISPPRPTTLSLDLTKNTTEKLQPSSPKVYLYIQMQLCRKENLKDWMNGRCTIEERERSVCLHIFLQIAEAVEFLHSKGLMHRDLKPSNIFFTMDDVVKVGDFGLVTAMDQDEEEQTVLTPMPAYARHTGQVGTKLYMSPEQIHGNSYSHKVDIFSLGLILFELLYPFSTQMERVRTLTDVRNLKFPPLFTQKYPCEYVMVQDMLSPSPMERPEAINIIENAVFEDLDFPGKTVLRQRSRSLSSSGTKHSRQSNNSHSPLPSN
Experimental: The potency of HC-5404 against four ISR kinases was evaluated in cell-free FRET-based biochemical assays, following manufacturer's instructions (Carna).
Cell-free biochemical assays were used to evaluate the selectivity of HC-5404 for PERK, relative to the ISR kinases GCN2, HRI, and PKR. In these assays, recombinant target kinases were incubated with […] and an eIF2α-based fluorogenic substrate, and kinase activity was evaluated in presence of HC-5404 across a concentration series.

[1] = tested on: mouse bone marrow-derived MDSCs / T cells; assay: mouse T cell suppression assay with bone marrow-derived MDSCs; type: cell-based; details: LSLG + 500 nM (FIG. 11A, 11C)
Experimental: Mouse MDSC Preparation: Single cell suspensions from bone marrow were prepared from the tibia and femur bone of C57BL/6 mice. Cells were cultured in RPMI complete medium (RPMI medium supplemented with 10% FBS, 10 mM HEPES, 1 mM Sodium pyruvate, 50 uM 2-ME, 1 mM MEM NEAA, 1× penicillin-streptomycin and 2 mM L-glutamax) at 2.5×10^6 cells per 10 ml in a […] tissue culture dish for 4 days in a 37 0 °C, 5% CO2 humidified incubator. Cytokines GM-CSF (10 ng/ml) and IL-6 (10 ng/mL) were added to the cell culture on day 0. For low serum low glucose (LSLG) medium treatment, cultured cells were first harvested from the plate and washed twice with RPMI medium to rinse off residual serum and glucose, and then cultured in 5 ml of LSLG medium (glucose-free RPMI supplemented with 1% FBS, 1 g/L glucose, 1× penicillin-streptomycin and 2 mM L-glutamax) in a 15 ml conical tube for 6 hours with or without HC-5404 addition. Cells were harvested and used in the T cell suppression assay.
Mouse T cell suppression assay: Spleens were harvested from C57BL/6 mice. […] T cell proliferation was analyzed by flow cytometry. […] The labeled cells were analyzed on a BD Fortessa cytometer and data was analyzed by FlowJo. […] Data were analyzed using one-way ANOVA with multiple comparison corrected with Dunnett test. *P<0.05; **P<0.01; ***P<0.005, ****P<0.0001 (FIGS. 11A, 11B, and 11C).

SMTCA75 = assay: RCC PDX single animal trial, SMTCA75; type: in vivo, mouse; details: HC-5404 30 mg/kg PO BID, n=1
Text: as §2, §3

mouse pancreas = assay: pancreas histology (pancreatic toxicity); type: in vivo
Experimental: As PERK inhibition has been associated with pancreatic toxicity, pancreas sections were evaluated from mice treated with 30 mg/kg or 100 mg/kg HC-5404. […] Together, these findings further supported the decision to dose at 30 mg/kg HC-5404 in subsequent in vivo studies.

RIOK2, sequence (Q9BVS4 whole entry, canonical isoform): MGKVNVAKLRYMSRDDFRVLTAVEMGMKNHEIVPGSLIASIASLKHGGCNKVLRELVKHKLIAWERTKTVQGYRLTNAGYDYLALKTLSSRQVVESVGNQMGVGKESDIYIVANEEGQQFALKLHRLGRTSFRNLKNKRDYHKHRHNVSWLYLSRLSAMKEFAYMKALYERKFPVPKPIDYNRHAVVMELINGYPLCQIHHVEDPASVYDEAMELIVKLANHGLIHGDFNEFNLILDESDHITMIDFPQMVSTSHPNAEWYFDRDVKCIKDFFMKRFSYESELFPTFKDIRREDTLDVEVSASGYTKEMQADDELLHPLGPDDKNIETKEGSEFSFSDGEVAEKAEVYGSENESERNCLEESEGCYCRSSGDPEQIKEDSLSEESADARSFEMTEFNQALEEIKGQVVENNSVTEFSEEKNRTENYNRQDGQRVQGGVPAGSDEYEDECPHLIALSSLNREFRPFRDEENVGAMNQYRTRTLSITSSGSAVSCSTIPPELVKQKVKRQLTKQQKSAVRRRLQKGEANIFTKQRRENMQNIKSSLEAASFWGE

inhibition of RIOK2 (RIOK2): inhibited
biochemical selectivity for PERK over GCN2, HRI and PKR (PERK): > 2000 fold
Compound: Cc1cc(NC(=O)[C@H](O)c2cc(F)cc(F)c2)ccc1-c1cnc(N)c(C(=O)NC(C)C)c1 [HC-5404, (R)-2-amino-5-(4-(2-(3,5-difluorophenyl)-2-hydroxyacetamido)-2-methylphenyl)-N-isopropylnicotinamide]
antitumor efficacy as monotherapy (RXF-2667): exhibited antitumor efficacy
interactions in kinome panel (468 unique kinases; 100 nM, PERK not in panel): no interactions observed
number of kinases inhibited >65% (468 unique kinases; 10,000 nM): 9 kinases
inhibition of T-cells by MDSCs [1]: reduced inhibition of T-cells
antitumor efficacy as monotherapy (SMTCA75): exhibited antitumor efficacy
reversibility of histological pancreas changes (mouse pancreas; 100 mg/kg PO BID, two-week washout): reversible with a two-week washout period
histological changes in the pancreas (mouse pancreas; 30 or 100 mg/kg PO BID, three weeks): histological changes in the pancreas only in the 100 mg/kg dose
